Source: patent publication US8987486B2, “Trans-2-decenoic acid derivative and pharmaceutical agent containing the same” (Nagoya Industrial Science Research Institute, priority 2010, dated 2015)

How the values were obtained:
MAP kinase = test: Activation (phosphorylation) of MAP kinase by Western immunoblotting in cultured cerebral cortex nerve cells; type: cell-based, rat; parameters: pMAPK/MAPK: unit not given here; details: for Ratio of pMAPK to MAPK: Test Example 6, relative to control (0 μg/mL = 1.0)
Method: With regard to the compound 1 ((E)-2-(dimethylamino)-ethyl dec-2-enoate), activation of MAP kinase was measured as follows by a Western immunoblotting.
Nerve cells were dispersed from cerebral cortex of a fetal rat of 17 days age and said nerve cells were cultured for one day in a Dulbecco-modified Eagle medium (DMEM) containing 5% fetal bovine serum. The culture medium was exchanged with a serum-free medium (B27 supplement-added Neurobasal; Invitrogen) and the nerve cells were cultured at the density of 20,000 to 40,000 cells per cm^2 in a culture dish coated with polyornithine.
After three days, the compound 1 was added and the culture was continued for 30 minutes. After that, the cells were recovered on ice using a solution containing a phosphatase inhibitor where Tris-HCl buffer was a base. Protein concentration of the resulting cell extract was quantified using a BCA Protein Assay Kit (Takara Bio KK) and a certine amount of protein (3 μg for the measurement of MAP kinase and 5 μg for the measurement of phosphorylated MAP kinase) was subjected to polyacrylamide gel electrophoresis. The protein was transcribed from the gel after the electrophoresis to a PVDF membrane and a Western immunoblotting was carried out using each of an anti-MAP kinase antibody (Cell Signaling Technology) and an anti-phosphorylated MAP kinase antibody (Cell Signaling Technology) of the primary antibody.
After that, the reaction with an alkaline phosphatase-labeled anti-rabbit IgG antibody (Promega) of the secondary antibody was carried out so that the enzymatic activity was colorized whereupon the MAP kinase and the phosphorylated MAP kinase were measured.
Incidentally, the compound 1 was adjusted to the concentrations of 10 μg/ml, 30 μg/ml, 100 μg/ml and 300 μg/ml by dissolving in 0.1% DMSO. With regard to the control, 0.1% DMSO was added.
Intensity of the concentration of the above-obtained band of the gel subjected to electrophoresis was calculated and quantified using Image J (K. K. Bioarts). The numerical value for the MAP kinase using the compound 1 was divided by the numerical value for the MAP kinase of the control and, further, the numerical value for the phosphorylated MAP kinase using the compound 1 was divided by the numerical value for the phosphorylated MAP kinase of the control whereupon the ratio of the MAP kinase using the compound 1 to the control and the ratio of the phosphorylated kinase using the compound 1 to the control were determined.
After that, the resulting ratio of the phosphorylated MAP kinase to the control was divided by the resulting ratio of the MAP kinase to the control to determine the ratio of the phosphorylated MAP kinase to the MAP kinase (cf. Table 5). In Table 5, “MAPK” means a MAP kinase and “pMAPK” means a phosphorylated MAP kinase. “10”, “30”, “100” and “300” in Table 5 show the examples where 10 μg/ml, 30 μg/ml, 100 μg/ml and 300 μg/ml of the compound 1 were added.
MAP kinase and phosphorylated MAP kinase were measured for the compound 6 ((E)-2-(diethylamino)ethyl dec-2-enoate) and the compound 13 ((E)-2-(2-(diethylamino)ethoxy)ethyl dec-2-enoate) by the same method as in Test Example 1.
Each of the compounds 6 and 13 was dissolved in 0.1% DMSO to adjust to the concentration of 250 μg/ml. With regard to the control, 0.1% DMSO was added. With regard to the concentration of the resulting band of the gel subjected to electrophoresis, its intensity was calculated by the same method as in Test Example 1 using Image J (K. K. Bioarts) and the ratio of the phosphorylated MAP kinase to the control was divided by the resulting ratio of the MAP kinase to the control whereupon the ratio of the phosphorylated MAP kinase to the MAP kinase was determined (cf. Table 6).
With regard to the compound of the present invention, its activation for MAP kinase was measured by the same manner as in Test Example 1.
Each compound was dissolved in 0.1% DMSO to adjust to the concentrations of 30 μg/ml, 60 μg/ml, 125 μg/ml and 250 μg/ml. […]

PC12 cells = test: Evaluation using PC12 cells; immunostaining method for MAPK phosphorylation; type: cell-based; details: 30 minutes
Method: PC12 cells were stimulated using the compound of the present invention and the phosphorylation of MAPK was evaluated by means of immunostaining of the cells. The specific operation procedure is as follows.
A cover glass was placed on a 24-well plate followed by coating with poly-L-lysine. PC12 cells were seeded in a cell density of 50,000 cells/well. (The amount of the medium was 400 μL) On the first day after seeding the cells, the medium was exchanged to DMEM containing 1% fetal bovine serum (FBS) and 0.06% L-glutamine.
The compound which was previously diluted with DMSO was dissolved in 100 μl of medium. After 12 to 16 hours from the medium exchange, 100 μl out of 400 μl of the medium was removed from each well and, in place of that, 100 μl of a medium containing the compound was added.
After 30 minutes from the addition, fixation was conducted using 4% paraformaldehyde (PFA) for 10 minutes. The fixed cells were washed with a Tris-buffered saline (TBS) and a TBS containing 0.3% Triton X was added thereto followed by incubating at 37° C. for 30 minutes. This was washed with a TBS and blocked with a TBS containing 3% skim milk for 30 minutes (at room temperature).
This was washed with a TBS for one time and a primary antibody (anti-phospho-p42/44 MAPK antibody; cell signalings; #9102 being diluted with TBS to an extent of 1,000-fold) was added thereto followed by subjecting to the reaction at 4° C. for one night. The primary antibody was removed and washed with a TBS for three times. After that, the secondary antibody (Alexa 488 goat anti-rabbit antibody; Invitrogen: being diluted to an extent of 1,000-fold using a TBS containing 1% Block Ace) was added thereto and the reaction was conducted at room temperature for 3 hours. The secondary antibody was removed and, after washing with a TBS, fixation was conducted with 4% PFA for 1 hour.
This was washed with a TBS, Hoechst (diluted with a TBS to an extent of 2000-fold) was added thereto and nuclear staining was conducted. This was washed and mounted.
Taking the photographic pictures and counting the positive cells were conducted as follows. An all-in-one microscope (manufactured by Keyence) was used, exposing time for pMAPK (green) was made 1/2.8 s, the place was appropriately decided in a Hoechst-stained image and the pictures were taken. Four pictures per one glass sheet were taken.
Photoshop (Adobe) was used and the cells having above a certain luminance were judged to be positive. All cells were labeled using Hoechst 33342 manufactured by Invitrogen and the rate of pMAPK-positive cells in Hoechst-positive cells was calculated. (cf. Table 7)

[1] = 10 μg/ml, 30 minutes, fetal rat cerebral cortex nerve cells
[2] = 30 μg/ml, 30 minutes, fetal rat cerebral cortex nerve cells
[3] = 100 μg/ml, 30 minutes, fetal rat cerebral cortex nerve cells

`CCCCCCC/C=C/C(=O)OCCN(C)C` [Compound 1, (E)-2-(dimethylamino)ethyl dec-2-enoate] was tested. Which pMAPK/MAPK (MAP kinase; [1]) did it give?
The pMAPK/MAPK was 674.

What about the pMAPK/MAPK/Control (MAP kinase; [1]) of the same compound?
The pMAPK/MAPK/Control was 1.38.

What about the pMAPK/MAPK (MAP kinase; [2]) of the same compound?
The pMAPK/MAPK was 1071.

What about the pMAPK/MAPK/Control (MAP kinase; [2]) of the same compound?
The pMAPK/MAPK/Control was 2.20.

What about the pMAPK/MAPK (MAP kinase; [3]) of the same compound?
Its pMAPK/MAPK is 1043.

What about the pMAPK/MAPK/Control (MAP kinase; [3]) of the same compound?
Its pMAPK/MAPK/Control is 2.14.

And the pMAPK/MAPK (MAP kinase; 300 μg/ml, 30 minutes, fetal rat cerebral cortex nerve cells)?
The pMAPK/MAPK was 2234.

And the “Rate of pMAPK-positive cells (%)” value (PC12 cells; 62.5 μg/mL)?
The value was 4%.

And the “Rate of pMAPK-positive cells (%)” value (PC12 cells; 125 μg/mL)?
The value was 12%.

And the “Rate of pMAPK-positive cells (%)” value (PC12 cells; 250 μg/mL)?
The value was 36%.

What about the “Rate of pMAPK-positive cells (%)” value (PC12 cells; 500 μg/mL) of the same compound?
The value was 32%.

Which results are given for `CCCCCCC/C=C/C(=O)SCCN(C)C` [Compound 55, (E)-S-2-(dimethylamino)ethyl dec-2-enethioate]?
Ratio of pMAPK to MAPK (MAP kinase; 30 μg/mL): 4.6; Ratio of pMAPK to MAPK (MAP kinase; 60 μg/mL): 8.6; Ratio of pMAPK to MAPK (MAP kinase; 125 μg/mL): 16.0; Rate of pMAPK-positive cells (%) (PC12 cells; 62.5 μg/mL): 20%; Rate of pMAPK-positive cells (%) (PC12 cells; 125 μg/mL): 46%; Rate of pMAPK-positive cells (%) (PC12 cells; 250 μg/mL): 41%; Rate of pMAPK-positive cells (%) (PC12 cells; 500 μg/mL): 10%

With `CCCCCCC/C=C/C(=O)OCCN(CC)CC` [Compound 6, (E)-2-(diethylamino)ethyl dec-2-enoate] as the compound, how does the pMAPK/MAPK/Control (MAP kinase; 250 μg/ml, Test Example 2, control = 1.00) read?
The pMAPK/MAPK/Control was 1.72.

And the “Rate of pMAPK-positive cells (%)” value (PC12 cells; 62.5 μg/mL)?
Its value is 31%.

And the “Rate of pMAPK-positive cells (%)” value (PC12 cells; 125 μg/mL)?
Its value is 51%.

`CCCCCCC/C=C/C(=O)NCCN(C)C` [Compound 36, (E)-N-2-(dimethylamino)ethyl dec-2-enamide] was tested. Which “Ratio of pMAPK to MAPK” value (MAP kinase; 30 μg/mL) did it give?
Its value is 1.6.

And the “Ratio of pMAPK to MAPK” value (MAP kinase; 60 μg/mL)?
Its value is 5.1.

What about the “Ratio of pMAPK to MAPK” value (MAP kinase; 125 μg/mL) of the same compound?
Its value is 0.5.

And the “Rate of pMAPK-positive cells (%)” value (PC12 cells; 62.5 μg/mL)?
The value was 12%.

And the “Rate of pMAPK-positive cells (%)” value (PC12 cells; 125 μg/mL)?
Its value is 70%.

And the “Rate of pMAPK-positive cells (%)” value (PC12 cells; 250 μg/mL)?
Its value is 89%.

And the “Rate of pMAPK-positive cells (%)” value (PC12 cells; 500 μg/mL)?
Its value is 43%.

For `CCCCCCC/C=C/C(=O)NCCN(CC)CC` [Compound 37, (E)-N-2-(diethylamino)ethyl dec-2-enamide], which “Ratio of pMAPK to MAPK” value (MAP kinase; 60 μg/mL) is on record?
Its value is 3.4.

And the “Ratio of pMAPK to MAPK” value (MAP kinase; 125 μg/mL)?
The value was 3.4.

What about the “Ratio of pMAPK to MAPK” value (MAP kinase; 250 μg/mL) of the same compound?
Its value is 4.9.

What about the “Rate of pMAPK-positive cells (%)” value (PC12 cells; 62.5 μg/mL) of the same compound?
Its value is 6%.

And the “Rate of pMAPK-positive cells (%)” value (PC12 cells; 125 μg/mL)?
The value was 43%.

What about the “Rate of pMAPK-positive cells (%)” value (PC12 cells; 250 μg/mL) of the same compound?
Its value is 48%.

And the “Rate of pMAPK-positive cells (%)” value (PC12 cells; 500 μg/mL)?
The value was 0%.
